How the values were obtained:
[1] = for pH value upon addition to water: 45° C., aqueous solution
Procedure: The procedure for both syntheses was identical so that they are summarized here. 54 g of CaO or respectively MgO were each subjected to a 10-minute activation. In order to have a sufficiently high operating temperature for the thermal activation, the empty mill was already brought to an operating temperature of 110° C. before the experiments. After the mechanical activation, a thermal activation of respectively 15 min. took place in both cases.

[2] = bulk material properties; format: physicochemical; conditions: water content <2%
Text: The grain shape was examined with the scanning electron microscope and produced the typical, needle-shaped crystals of the glycinates and their agglomerates. With respect to the bulk material properties, the particle distribution analysis found a d50 value of 50 μm. The material is free-flowing, has a water content of <2% and is stable.

Row | SMILES | pH value upon addition to water [1] | further results
1 | [O]=[Mg] [MgO] | – | stability (non-dissolution) in the presence of HCl [1]: stable up to pH 0
2 | NCC(=O)[O-].NCC(=O)[O-].[Ca+2] [calcium glycinate] | 7.5 | –
3 | NCC(=O)[O-].NCC(=O)[O-].[Cu+2] [Example 1, bis (glycinato) copper] | – | stability of the material [2]: stable
4 | NCC(=O)[O-].NCC(=O)[O-].[Mg+2] [magnesium glycinate] | 8 | –
